In patent publication US11786528B2, “Pyrazolopyrimidine compounds as adenosine receptor antagonists” (EXSCIENTIA LTD., priority 2018, dated 2023):

Experiments:
[1] = molecular target: human A2a receptors (HEK 293 transfected) (Homo sapiens (Human), UniProt P29274); assay: Inhibition of cAMP release in HEK-A2aR cells (HTRF, LANCE Ultra cAMP); format: cell-based; settings: 3 nM NECA, 10 min
Procedure: Functional activity was measured by inhibition of cAMP release in HEK cells (see below for further details).
To screen A2a receptor inhibitors by HTRF technology, about 500 HEK-A2aR cells (HEK 293 transfected with human A2a receptors) were treated with inhibitors in presence of stimulation buffer (1×HBSS, 5 mM HEPES, 0.1% BSA stabilizer, pH 7.4) supplemented with 30 μM phosphodiesterase inhibitor Rolipram (to prevent cAMP degradation). This stimulation was immediately followed by treatment with 3 nM standard A2aR agonist (NECA) for 10 min under gentle shaking at room temperature. After that, inhibition of cAMP release was determined directly using LANCE Ultra cAMP assay (Perkin Elmer TRF0263).
All analysis was performed using GraphPad Prism 7.0 (GraphPad Software, San Diego, USA). Results are given, as EC50 (M).

[2] = molecular target: human adenosine receptor sub-type A2a (wild type) (Homo sapiens (Human), UniProt P29274); assay: Affinity for human adenosine A2a receptor by surface plasmon resonance (SPR); format: binding
Chain of human adenosine receptor sub-type A2a (wild type) (P29274 whole entry): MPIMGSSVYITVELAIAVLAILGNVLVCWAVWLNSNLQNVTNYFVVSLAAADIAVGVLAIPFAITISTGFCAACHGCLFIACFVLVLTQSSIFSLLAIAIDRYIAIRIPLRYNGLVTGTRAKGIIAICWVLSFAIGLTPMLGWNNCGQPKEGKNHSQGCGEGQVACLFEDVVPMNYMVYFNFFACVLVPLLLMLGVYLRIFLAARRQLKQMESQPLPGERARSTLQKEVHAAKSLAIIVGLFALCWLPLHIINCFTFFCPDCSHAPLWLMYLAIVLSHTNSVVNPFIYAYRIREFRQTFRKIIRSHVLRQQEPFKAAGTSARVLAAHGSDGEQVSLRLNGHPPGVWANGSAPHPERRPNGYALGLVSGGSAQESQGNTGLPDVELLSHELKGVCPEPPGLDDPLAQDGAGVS
Procedure: (§1) Affinity for the human adenosine receptor sub-types (A2a, A2b, A1 and A3) was determined by surface plasmon resonance (SPR) using published methodologies (see below for further details).
(§2) Affinity for the human adenosine receptor sub-types (A2a, A2b, A1 and A3) was determined by SPR as described in Aristotelous, T., et al, Methods in Enzymology (2015), Volume 556, Chapter 23, pages 499-525 and Congreve, M., et al, J Med Chem (2012), Vol. 55, pages 1898-1903. The method used was analogous to the method used in Congreve, M., et al (see supplementary page S10) for the A2a receptor, but the wild type receptor was used rather than the proprietary StaR form.

[3] = molecular target: human adenosine receptor sub-type A3 (Homo sapiens (Human), UniProt P0DMS8); assay: Affinity for human adenosine A3 receptor by SPR; format: binding; settings: for IC50: SPR, human A3 receptor; for Relative selectivity for A2a v. A3: from SPR IC50 values, rounded to 2 significant figures
Chain of human adenosine receptor sub-type A3 (P0DMS8 whole entry): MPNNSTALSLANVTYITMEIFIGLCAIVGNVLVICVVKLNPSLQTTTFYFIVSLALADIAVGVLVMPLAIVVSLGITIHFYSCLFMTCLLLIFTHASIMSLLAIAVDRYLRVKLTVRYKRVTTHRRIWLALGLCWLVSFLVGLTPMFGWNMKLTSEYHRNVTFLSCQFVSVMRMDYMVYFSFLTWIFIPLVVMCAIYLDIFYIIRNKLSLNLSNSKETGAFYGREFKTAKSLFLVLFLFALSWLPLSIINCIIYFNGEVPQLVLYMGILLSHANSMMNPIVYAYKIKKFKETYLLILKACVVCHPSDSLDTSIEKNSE
Procedure: as §1, §2

[4] = molecular target: human adenosine receptor sub-type A1 (Homo sapiens (Human), UniProt P30542); assay: Affinity for human adenosine A1 receptor by SPR; format: binding; settings: for IC50: SPR, human A1 receptor; for Relative selectivity for A2a v. A1: from SPR IC50 values, rounded to 2 significant figures
Chain of human adenosine receptor sub-type A1 (P30542 whole entry): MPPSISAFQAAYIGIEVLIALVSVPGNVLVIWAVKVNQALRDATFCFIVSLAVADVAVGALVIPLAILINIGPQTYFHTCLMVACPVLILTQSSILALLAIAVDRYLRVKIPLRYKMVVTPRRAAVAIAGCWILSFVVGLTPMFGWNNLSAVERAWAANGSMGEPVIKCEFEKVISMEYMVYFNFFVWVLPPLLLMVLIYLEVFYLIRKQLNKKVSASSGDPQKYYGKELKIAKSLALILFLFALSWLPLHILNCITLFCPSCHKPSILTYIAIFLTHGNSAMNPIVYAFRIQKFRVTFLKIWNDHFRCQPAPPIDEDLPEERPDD
Procedure: as §1, §2

[5] = molecular target: human adenosine receptor sub-type A2b (Homo sapiens (Human), UniProt P29275); assay: Affinity for human adenosine A2b receptor by SPR; format: binding; settings: for IC50: SPR, human A2b receptor; for Relative selectivity for A2a v. A2b: from SPR IC50 values, rounded to 2 significant figures
Chain of human adenosine receptor sub-type A2b (P29275 whole entry): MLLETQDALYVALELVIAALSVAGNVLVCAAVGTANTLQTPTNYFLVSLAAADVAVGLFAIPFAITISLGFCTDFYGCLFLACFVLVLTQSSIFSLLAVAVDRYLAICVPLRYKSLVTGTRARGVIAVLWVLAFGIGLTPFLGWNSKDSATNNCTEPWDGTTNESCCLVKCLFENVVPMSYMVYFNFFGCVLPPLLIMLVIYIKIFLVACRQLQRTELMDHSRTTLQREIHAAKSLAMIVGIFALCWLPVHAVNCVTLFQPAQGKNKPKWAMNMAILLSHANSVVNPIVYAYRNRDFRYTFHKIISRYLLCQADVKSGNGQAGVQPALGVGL
Procedure: as §1, §2

Chain of human A2a receptors (HEK 293 transfected) (P29274 whole entry): as the sequence (P29274 whole entry) above

Row | SMILES | EC50 [1] | IC50 [2] | further results
1 | COc1cccc(Cn2cc3c(N)nc(-c4ncco4)nc3n2)c1 [Example 4, 2-[(3-methoxyphenyl)methyl]-6-(1,3-oxazol-2-yl)-2H-pyrazolo[3,4-d]pyrimidin-4-amine] | 400 nM | 4.9 nM | 
2 | COc1cccc(Cn2cc3c(N)nc(-c4cc(C)no4)nc3n2)c1 [Example 6, 2-[(3-methoxyphenyl)methyl]-6-(3-methyl-1,2-oxazol-5-yl)-2H-pyrazolo[3,4-d]pyrimidin-4-amine] |  | 162 nM | 
3 | Nc1nc(-c2cnccn2)nc2nn(Cc3cccc(C(F)(F)F)c3)cc12 [Example 28, 6-(pyrazin-2-yl)-2-{[3-(trifluoromethyl)phenyl]methyl}-2H-pyrazolo[3,4-d]pyrimidin-4-amine] | 13 nM | 3.2 nM | 
4 | COc1cccc(Cn2cc3c(N)nc(-c4nc(C)cs4)nc3n2)c1 [Example 5, 2-[(3-methoxyphenyl)methyl]-6-(4-methyl-1,3-thiazol-2-yl)-2H-pyrazolo[3,4-d]pyrimidin-4-amine] |  | 47 nM | 
5 | COc1ccc(Cn2cc3c(N)nc(-c4cnccn4)nc3n2)cc1 [Example 15, 2-[(4-methoxyphenyl)methyl]-6-(pyrazin-2-yl)-2H-pyrazolo[3,4-d]pyrimidin-4-amine] |  | 253 nM | 
6 | Nc1nc(-c2ccsn2)nc2nn(Cc3ccc(C(F)(F)F)cc3)cc12 [Example 17, 6-(1,2-thiazol-3-yl)-2-{[4-(trifluoromethyl)phenyl]methyl}-2H-pyrazolo[3,4-d]pyrimidin-4-amine] | 226 nM | 54 nM | 
7 | Cc1ccccc1Cn1cc2c(N)nc(-c3ccsn3)nc2n1 [Example 32, 2-[(2-methylphenyl)methyl]-6-(1,2-thiazol-3-yl)-2H-pyrazolo[3,4-d]pyrimidin-4-amine] | 14 nM | 10 nM | 
8 | Cc1ccc(Cn2cc3c(N)nc(-c4cnccn4)nc3n2)cc1 [Example 12, 2-[(4-methylphenyl)methyl]-6-(pyrazin-2-yl)-2H-pyrazolo[3,4-d]pyrimidin-4-amine] | 199 nM | 7.9 nM | IC50 [3]: 38800 nM; Relative selectivity for A2a v. A3 [3]: 4900; IC50 [4]: 7300 nM; Relative selectivity for A2a v. A1 [4]: 920; IC50 [5]: 9000 nM; Relative selectivity for A2a v. A2b [5]: 1100
9 | Nc1nc(-c2cnccn2)nc2nn(Cc3cccc(F)c3)cc12 [Example 30, 2-[(3-fluorophenyl)methyl]-6-(pyrazin-2-yl)-2H-pyrazolo[3,4-d]pyrimidin-4-amine] | 232 nM | 8 nM | 
10 | COc1cccc(Cn2cc3c(N)nc(-c4ccsn4)nc3n2)c1 [Example 10, 2-[(3-methoxyphenyl)methyl]-6-(1,2-thiazol-3-yl)-2H-pyrazolo[3,4-d]pyrimidin-4-amine] | 235 nM | 5.1 nM | IC50 [3]: 60000 nM; Relative selectivity for A2a v. A3 [3]: 12000; IC50 [4]: 680 nM; Relative selectivity for A2a v. A1 [4]: 130; IC50 [5]: 690 nM; Relative selectivity for A2a v. A2b [5]: 140
11 | Cc1ccccc1Cn1cc2c(N)nc(-c3cnccn3)nc2n1 [Example 31, 2-[(2-methylphenyl)methyl]-6-(pyrazin-2-yl)-2H-pyrazolo[3,4-d]pyrimidin-4-amine] | 56 nM | 5.7 nM | 
12 | Cc1ccc(Cn2cc3c(N)nc(-c4ccsn4)nc3n2)cc1 [Example 13, 2-[(4-methylphenyl)methyl]-6-(1,2-thiazol-3-yl)-2H-pyrazolo[3,4-d]pyrimidin-4-amine] | 128 nM | 15 nM | 
13 | Nc1nc(-c2nccs2)nc2nn(Cc3nccs3)cc12 [Example 33, 6-(1,3-thiazol-2-yl)-2-[(1,3-thiazol-2-yl)methyl]-2H-pyrazolo[3,4-d]pyrimidin-4-amine] | 2160 nM | 27 nM | 
14 | Cc1cccc(Cn2cc3c(N)nc(-c4ncco4)nc3n2)c1 [Example 26, 2-[(3-methylphenyl)methyl]-6-(1,3-oxazol-2-yl)-2H-pyrazolo[3,4-d]pyrimidin-4-amine] | 123 nM | 2.8 nM | 
15 | COc1ccccc1Cn1cc2c(N)nc(-c3ncco3)nc2n1 [Example 39, 2-[(2-methoxyphenyl)methyl]-6-(1,3-oxazol-2-yl)-2H-pyrazolo[3,4-d]pyrimidin-4-amine] | 213 nM | 4.3 nM | 
16 | Cc1ccc(Cn2cc3c(N)nc(-c4nccs4)nc3n2)cc1 [Example 14, 2-[(4-methylphenyl)methyl]-6-(1,3-thiazol-2-yl)-2H-pyrazolo[3,4-d]pyrimidin-4-amine] | 54 nM | 14 nM | 

Row | SMILES | EC50 [1] | IC50 [2] | further results
17 | Nc1nc(-c2ccsn2)nc2nn(Cc3ccccn3)cc12 [Example 22, 2-[(pyridin-2-yl)methyl]-6-(1,2-thiazol-3-yl)-2H-pyrazolo[3,4-d]pyrimidin-4-amine] |  | 27 nM | 
18 | Nc1nc(-c2ccsn2)nc2nn(Cc3cccc(F)c3)cc12 [Example 29, 2-[(3-fluorophenyl)methyl]-6-(1,2-thiazol-3-yl)-2H-pyrazolo[3,4-d]pyrimidin-4-amine] | 118 nM | 15 nM | 
19 | COc1cc(C)ccc1Cn1cc2c(N)nc(-c3ccsn3)nc2n1 [Example 25, 2-[(2-methoxy-4-methylphenyl)methyl]-6-(1,2-thiazol-3-yl)-2H-pyrazolo[3,4-d]pyrimidin-4-amine] | 407 nM | 18 nM | 
20 | COc1cccc(Cn2cc3c(N)nc(-c4cnccn4)nc3n2)c1 [Example 2, 2-[(3-methoxyphenyl)methyl]-6-(pyrazin-2-yl)-2H-pyrazolo[3,4-d]pyrimidin-4-amine] | 1530 nM | 6.7 nM | 
21 | COc1cc(Cn2cc3c(N)nc(-c4ccsn4)nc3n2)ccc1C [Example 18, 2-[(3-methoxy-4-methylphenyl)methyl]-6-(1,2-thiazol-3-yl)-2H-pyrazolo[3,4-d]pyrimidin-4-amine] | 218 nM | 18 nM | 
22 | COc1cccc(Cn2cc3c(N)nc(-c4snnc4C)nc3n2)c1 [Example 7, 2-[(3-methoxyphenyl)methyl]-6-(4-methyl-1,2,3-thiadiazol-5-yl)-2H-pyrazolo[3,4-d]pyrimidin-4-amine] |  | 24 nM | 
23 | Nc1nc(-c2cnccn2)nc2nn(Cc3cccc(O)c3)cc12 [Example 3, 3-{[4-amino-6-(pyrazin-2-yl)-2H-pyrazolo[3,4-d]pyrimidin-2-yl]methyl}phenol] |  | 41 nM | 
24 | COc1cccc(Cn2cc3c(N)nc(-c4cscn4)nc3n2)c1 [Example 9, 2-[(3-methoxyphenyl)methyl]-6-(1,3-thiazol-4-yl)-2H-pyrazolo[3,4-d]pyrimidin-4-amine] | 875 nM | 41 nM | 
25 | Cc1ccc(Cn2cc3c(N)nc(-c4ccsn4)nc3n2)cc1C [Example 21, 2-[(3,4-dimethylphenyl)methyl]-6-(1,2-thiazol-3-yl)-2H-pyrazolo[3,4-d]pyrimidin-4-amine] | 4 nM | 5 nM | 
26 | Nc1nc(-c2ccsn2)nc2nn(Cc3cccc(OC(F)(F)F)c3)cc12 [Example 16, 6-(1,2-thiazol-3-yl)-2-{[3-(trifluoromethoxy)phenyl]methyl}-2H-pyrazolo[3,4-d]pyrimidin-4-amine] | 9 nM | 8.3 nM | 
27 | Nc1nc(-c2ccsn2)nc2nn(Cc3cccc(O)c3)cc12 [Example 42, 3-{[4-amino-6-(1,2-thiazol-3-yl)-2H-pyrazolo[3,4-d]pyrimidin-2-yl]methyl}phenol] |  | 61 nM | 
28 | Nc1nc(-c2cnccn2)nc2nn(Cc3cccc(Cl)c3)cc12 [Example 36, 2-[(3-chlorophenyl)methyl]-6-(pyrazin-2-yl)-2H-pyrazolo[3,4-d]pyrimidin-4-amine] | 30 nM | 1.5 nM | 
29 | Nc1nc(-c2ccsn2)nc2nn(Cc3nccs3)cc12 [Example 34, 2-[(1,3-thiazol-2-yl)methyl]-6-(1,2-thiazol-3-yl)-2H-pyrazolo[3,4-d]pyrimidin-4-amine] |  | 67 nM | 
30 | Cc1ccc(Cn2cc3c(N)nc(-c4ccsn4)nc3n2)cn1 [Example 23, 2-[(6-methylpyridin-3-yl)methyl]-6-(1,2-thiazol-3-yl)-2H-pyrazolo[3,4-d]pyrimidin-4-amine] |  | 29 nM | 
31 | Nc1nc(-c2ccsn2)nc2nn(Cc3cccc(CO)c3)cc12 [Example 46, [3-[(4-amino-6-(1,2-thiazol-3-yl)-pyrazolo[3,4-d]pyrimidin-2-yl)methyl]phenyl]methanol] |  | 37 nM | IC50 [3]: > 100000 nM; Relative selectivity for A2a v. A3 [3]: >2700; IC50 [4]: > 100000 nM; Relative selectivity for A2a v. A1 [4]: >2700; IC50 [5]: > 100000 nM; Relative selectivity for A2a v. A2b [5]: >2700
32 | Nc1nc(-c2ccsn2)nc2nn(Cc3cc(Cl)ccc3Cl)cc12 [Example 20, 2-[(2,5-dichlorophenyl)methyl]-6-(1,2-thiazol-3-yl)-2H-pyrazolo[3,4-d]pyrimidin-4-amine] | 145 nM | 13 nM | 
